Results: patent US20200268793A1, “METHODS AND COMPOSITIONS FOR ALLEVIATING CYTOKINE RELEASE SYNDROME” (MEMORIAL SLOAN-KETTERING CANCER CENTER, priority 2017, published 2020)
“Also recorded” adds a separate entry of the source. Like-named read-outs stand apart in the source and are kept apart here.

How the values were obtained:
[1] = system: SCID-beige mice with established intraperitoneal Raji tumors; experiment: CRS mouse model: survival, weight change, toxicity and histopathology after CAR T cell transfer; format: in vivo; settings: tumor bearing mice after 1928z CAR T cell transfer; for Toxicity as witnessed by weight loss (percent weight change) under treatment: 5 mg/kg intraperitoneally once per day; for CRS-associated mortality (percent survival) under treatment: agent given intraperitoneally once per day for 5 days
Method: Mice were treated under a protocol approved by the MSKCC Institutional Animal Care and Use Committee. CRS Model: 6-8 week old female C.B.Igh-1b/GbmsTac-Prkdc^scidLyst^bgN7 (SCID-beige) mice (Taconic) were intraperitoneally injected with 3 million Raji-GFP-Fluc cells and tumors were left to grow for 20 days. Tumor burden was evaluated by in vivo bioluminescent imaging two days prior to CAR T cell transfer. Outliers, mice with inconsistently higher or lower tumor burdens were excluded from the experiment. Mice were injected intraperitoneally with 30 million CAR^+ T cells in PBS supplemented with 2% Human Serum. Control mice received PBS supplemented with 2% Human Serum. Stress test model: 6-8 week-old male NOD.Cg-Prkdc^scidIl2rg^tmWjl/SzJ (NSG) mice (Jackson Laboratory) were inoculated with 0.5×10^6 NALM-6-GFP-Fluc cells by tail vein injection followed by with 0.2×10^6 or with 0.5×10^6 CAR T cells four days later. Bioluminescence imaging utilized the Xenogen IVIS Imaging System (Xenogen) with Living Image software (Xenogen) for acquisition of imaging datasets. Tumor Burden was assessed as previously described^34.
(§1) Anakinra was administered intraperitoneally at 30 mg/kg once per day for 5 days, starting 5 hours prior to CAR T cell transfer. Anti-murine IL-6 (clone MP5-20F3, BioXcell) and anti-murine IL-6R (clone 15A7, BioXcell) were administered intraperitoneally once per day at 25 mg/kg for the first dose and 12.5 mg/kg for subsequent doses for 5 days starting 5 hours prior to CAR T cell transfer. L-NIL (Enzo Life Sciences) or 1400W (Cayman Chemical) were administered intraperitoneally at 5 mg/kg once per day for 5 days starting 5 hours prior to CAR T cell transfer.
Mice were transferred to the pathology core facility of Memorial Sloan Kettering where they were sacrificed by cardiac puncture. Tissues obtained were fixed in 10% buffered formalin and were further processed for H&E staining and immunohistochemistry.
To model CAR T cell-induced CRS, conditions were established whereby a high number of CD19 CAR T cells engaged a high tumor burden and yielded overt toxicity within 2-3 days^2-5 (FIG. 1A). […] The overall levels of these cytokines, including mIL6, mCCL2, mG-CSF, hIL-3, hIFN-γ, hGM-CSF, hIL-2 correlated strongly with CRS severity and survival (FIGS. 1E-1L and 1S). The xenogeneic nature of this model was taken advantage of to discern the origin of these cytokines and chemokines. Thus, IL-6 was produced by endogenous murine cells while IFN-γ and GM-CSF were products of the CART cells. mIL6 and hIL6.^12, were not elevated in the absence of CART cells (FIGS. 1M-1O, 1T and 5D), establishing that this cardinal feature of CRS was the result a multicellular interaction and not the outcome of a T cell-tumor cell interaction.

[2] = system: iNOS; experiment: iNOS expression in peritoneal macrophages by intracellular flow cytometry in CRS mice; format: in vivo, mouse; settings: 18 hours post CAR T cell transfer
Method: as §1
Antibodies were titrated for optimal staining. The following fluorophore conjugated antibodies were used (“h” prefix denotes anti-human, “m” prefix denotes anti-mouse): hCD4 BUV395 (clone RPA-T4, BD), hCD8 PE-Cy7 (clone SK1, eBioscience), hCD3 PerCP-efluor710 (clone OKT3, eBioscience), hCD19 BUV737 (clone SJ25C1, BD), hLNGFR BB515 (clone C40-1457, BD), mF4/80 BV421 and BV711 (clone T45-2342, BD), mLy6C Alexa Fluor 647 and BV786 (clone ER-MP20, AbdSerotec and clone HK1.4, BioLegend respectively), mMHCII BB515 (clone 2G9, BD), mCD11c BV650 (clone N418, BioLegend), mLy6G APC-Fire750 (clone 1A8, BioLegend), mSIGLEC-F PE-CF594 (clone E50-2440, BD), mCD40 BV786 (clone 3/23, BD), mCD40L PE (clone MR1, BD), mCD11b BUV395 (clone M1/70, BD), mNOS2 PE-Cy7 (clone CXNFT, eBioscience). […]

[3] = system: cognate murine receptor; settings: cytokines of human origin, cited from earlier work
[4] = system: cognate human receptor; settings: cytokines of murine origin; cited from earlier work

For CC(=N)NCc1cccc(CN)c1 [1400W], the “Toxicity as witnessed by weight loss (percent weight change) under treatment” value [1] was “reversed toxicity” and the “CRS-associated mortality (percent survival) under treatment” value [1] was “significantly prevented mortality”.

For CC(=N)NCCCC[C@H](N)C(=O)O [L-NIL, L-N6-(1-iminoethyl)lysine], the “Toxicity as witnessed by weight loss (percent weight change) under treatment” value [1] was “robust reversal of toxicity”.

With “Anakinra: IL-1Ra polypeptide used for IL-1 blockade” the “CRS-associated mortality (percent survival) under treatment” value [1] was “completely abrogated CRS-related mortality” and the “iNOS+ macrophage fraction” value [2] was “similarly reduced”.

In the case of GM-CSF: cytokine of human origin, the “Human on mouse (active on the cognate murine receptor)” value (“Human on mouse” for short) [3] is given as “lack of activity; also recorded: No^39”.

In the case of IFNg: cytokine of human origin, the “Human on mouse” value [3] is given as “No^38” and the “Human on mouse” value ([3]; listed as human IFN-γ) is given as “lack of activity”.

For IL-8: cytokine of human origin, the “Human on mouse” value [3] is given as “Yes^40”.

For IL-10: cytokine of human origin, the “Human on mouse” value [3] is listed as “Yes^40”.

In the case of IL-13: cytokine of human origin, the “Human on mouse” value [3] is given as “Yes^40”.

For IL-17: cytokine of human origin, the “Human on mouse” value [3] is listed as “Yes^40”.

In the case of TNFa, the “Human on mouse” value [3] is listed as “Partial^40” and the “Human on mouse” value ([3]; listed as Human TNF-α) is listed as “can signal through the murine p55 TNF receptor but not the p75 TNF receptor”.

For “human CD40L: CD40 ligand, mainly expressed by T cells”, the “Human on mouse” value [3] is listed as “does not functionally interact”.

B1: IL-6: cytokine of murine origin (protein, UniProt P08505 25-211, looked up)
Interleukin-6: FPTSQVRRGDFTEDTTPNRPVYTTSQVGGLITHVLWEIVEMRKELCNGNSDCMNNDDALAENNLKLPEIQRNDGCYQTGYNQEICLLKISSGLLEYHSYLEYMKNNLKDNKKDKARVLQRDTETLIHIFNQEVKDLHKIVLPTPISNALLTDKLESQKEWLRTKTIQFILKSLEEFLKVTLRSTRQT
For B1, the “Mouse on human (active on the cognate human receptor)” value (“Mouse on human” below) [4] is listed as “No^39”.

B2: IL-5: cytokine of murine origin (protein, UniProt P04401 21-133, looked up)
Interleukin-5: MEIPMSTVVKETLTQLSAHRALLTSNETMRLPVPTHKNHQLCIGEIFQGLDILKNQTVRGGTVEMLFQNLSLIKKYIDRQKEKCGEERRRTRQFLDYLQEFLGVMSTEWAMEG
For B2, the “Mouse on human” value [4] is listed as “Yes^40”.

B3: IL-15: cytokine of murine origin (protein, UniProt P48346 49-162, looked up)
Interleukin-15: NWIDVRYDLEKIESLIQSIHIDTTLYTDSDFHPSCKVTAMNCFLLELQVILHEYSNMTLNETVRNVLYLANSTLSSNKNVAESGCKECEELEEKTFTEFLQSFIRIVQMFINTS
For B3, the “Mouse on human” value [4] is listed as “Yes^39”.
